# ChEMBL document CHEMBL1201862, “PubChem BioAssay data set” (2004)
#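 Five concentrations, 48 hours, 96-well plates. GI50: concentration for 50% inhibition of growth.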 Calls of active or inactive are those of the source. Rule as the data show it: active = GI50 up to about 1.1 µM and inactive = higher.
# Experiments:
# Experiment in all cases: DTP human tumour cell line panel, 48 h
# [1] = system: HCT-116
# [2] = system: SK-MEL-2
# [3] = system: UO-31
# [4] = system: MDA-MB-231
# [5] = system: SR
# [6] = system: OVCAR-8
# [7] = system: RXF 393
# [8] = system: M14
# [9] = system: SF-539
# [10] = system: SK-MEL-5
# [11] = system: CCRF-CEM
# [12] = system: HCT-15
# [13] = system: T47D
# [14] = system: ACHN
# [15] = system: NCI-H460
# [16] = system: Malme-3M
# [17] = system: K562
# [18] = system: BT-549
# [19] = system: SK-OV-3
# [20] = system: LOX IMVI
# [21] = system: SNB-75
# [22] = system: KM12
# [23] = system: OVCAR-4
# [24] = system: NCI-H23
# [25] = system: NCI-H226
# [26] = system: HL-60
# [27] = system: SK-MEL-28
# [28] = system: 786-0
# [29] = system: SNB-19
# [30] = system: IGROV-1
# [31] = system: HT-29
# [32] = system: EKVX
# [33] = system: RPMI-8226
# [34] = system: A498
# [35] = system: SW-620
# [36] = system: Hs-578T
# [37] = system: SF-268
# [38] = system: MDA-MB-435
# [39] = system: HOP-62
# [40] = system: COLO 205
# [41] = system: OVCAR-3
# [42] = system: DU-145
# [43] = system: PC-3
# [44] = system: UACC-62
# [45] = system: U-251
# [46] = system: SN12C
# [47] = system: NCI-H522
# [48] = system: MCF7
# [49] = system: MOLT-4
# [50] = system: UACC-257
# [51] = system: NCI/ADR-RES
# [52] = system: TK-10
# [53] = system: OVCAR-5
# [54] = system: HOP-92
# [55] = system: A549
# [56] = system: SF-295
# [57] = system: CAKI-1
# [58] = system: MDA-N
# [59] = system: HCC 2998
compound,measurement,setting,value
NCC1OC(n2cnc3c(N)ncnc32)CC1O (centres undefined),GI50,[1],> 100 µM (inactive)
same,GI50,[2],> 100 µM (inactive)
same,GI50,[3],> 100 µM (inactive)
same,GI50,[4],> 100 µM (inactive)
same,GI50,[5],> 100 µM (inactive)
same,GI50,[6],> 100 µM (inactive)
same,GI50,[7],> 100 µM (inactive)
same,GI50,[8],> 100 µM (inactive)
same,GI50,[9],> 100 µM (inactive)
same,GI50,[10],> 100 µM (inactive)
same,GI50,[11],> 100 µM (inactive)
same,GI50,[12],> 100 µM
same,GI50,[13],> 100 µM (inactive)
same,GI50,[14],> 100 µM (inactive)
same,GI50,[15],> 100 µM (inactive)
same,GI50,[16],> 100 µM (inactive)
same,GI50,[17],> 100 µM (inactive)
same,GI50,[18],> 100 µM (inactive)
same,GI50,[19],> 100 µM (inactive)
same,GI50,[20],> 100 µM (inactive)
same,GI50,[21],> 100 µM (inactive)
same,GI50,[22],> 100 µM (inactive)
same,GI50,[23],> 100 µM (inactive)
same,GI50,[24],> 100 µM (inactive)
same,GI50,[25],> 100 µM (inactive)
same,GI50,[26],> 100 µM (inactive)
same,GI50,[27],> 100 µM (inactive)
same,GI50,[28],> 100 µM (inactive)
same,GI50,[29],> 100 µM (inactive)
same,GI50,[30],> 100 µM (inactive)
same,GI50,[31],> 100 µM (inactive)
same,GI50,[32],> 100 µM (inactive)
same,GI50,[33],> 100 µM (inactive)
same,GI50,[34],> 100 µM (inactive)
same,GI50,[35],> 100 µM (inactive)
same,GI50,[36],> 100 µM (inactive)
same,GI50,[37],> 100 µM (inactive)
same,GI50,[38],> 100 µM (inactive)
same,GI50,[39],> 100 µM (inactive)
same,GI50,[40],> 100 µM (inactive)
same,GI50,[41],> 100 µM (inactive)
same,GI50,[42],> 100 µM (inactive)
same,GI50,[43],> 100 µM (inactive)
same,GI50,[44],> 100 µM (inactive)
same,GI50,[45],> 100 µM (inactive)
same,GI50,[46],> 100 µM (inactive)
same,GI50,[47],> 100 µM (inactive)
same,GI50,[48],> 100 µM (inactive)
same,GI50,[49],> 100 µM (inactive)
same,GI50,[50],> 100 µM (inactive)
same,GI50,[51],> 100 µM (inactive)
same,GI50,[52],> 100 µM (inactive)
same,GI50,[53],> 100 µM (inactive)
same,GI50,[54],> 100 µM (inactive)
same,GI50,[55],> 100 µM (inactive)
same,GI50,[56],> 100 µM (inactive)
same,GI50,[57],> 100 µM (inactive)
same,GI50,[58],> 100 µM (inactive)
Cc1ccc2c(c1)C=CC1(O2)N(c2ccccc2)C(=S)OC1(C)C (centres undefined),GI50,[1],21.5 µM (inactive)
same,GI50,[2],29 µM (inactive)
same,GI50,[3],28.5 µM (inactive)
same,GI50,[4],> 100 µM (inactive)
same,GI50,[5],14.5 µM (inactive)
same,GI50,[6],> 100 µM (inactive)
same,GI50,[7],73.3 µM (inactive)
same,GI50,[8],43.8 µM (inactive)
same,GI50,[10],32.1 µM (inactive)
same,GI50,[11],53 µM (inactive)
same,GI50,[12],46.2 µM
same,GI50,[13],3.86 µM (inactive)
same,GI50,[14],> 100 µM (inactive)
same,GI50,[15],> 100 µM (inactive)
same,GI50,[17],7.29 µM (inactive)
same,GI50,[18],> 100 µM (inactive)
same,GI50,[19],21.4 µM (inactive)
same,GI50,[20],> 100 µM (inactive)
same,GI50,[21],> 100 µM (inactive)
same,GI50,[22],34.5 µM (inactive)
same,GI50,[23],25.8 µM (inactive)
same,GI50,[24],35.4 µM (inactive)
same,GI50,[25],> 100 µM (inactive)
same,GI50,[26],5.37 µM (inactive)
same,GI50,[27],> 100 µM (inactive)
same,GI50,[28],> 100 µM (inactive)
same,GI50,[29],> 100 µM (inactive)
same,GI50,[30],10.1 µM (inactive)
same,GI50,[31],41.5 µM (inactive)
same,GI50,[32],30 µM (inactive)
same,GI50,[33],22.9 µM (inactive)
same,GI50,[34],> 100 µM (inactive)
same,GI50,[35],75.5 µM (inactive)
same,GI50,[36],31.9 µM (inactive)
same,GI50,[37],89.5 µM (inactive)
same,GI50,[59],76.9 µM (inactive)
same,GI50,[38],22.1 µM (inactive)
same,GI50,[39],> 100 µM (inactive)
same,GI50,[40],> 100 µM (inactive)
same,GI50,[41],29.6 µM (inactive)
same,GI50,[42],> 100 µM (inactive)
same,GI50,[43],9.27 µM (inactive)
same,GI50,[44],40.9 µM (inactive)
same,GI50,[45],83.8 µM (inactive)
same,GI50,[46],> 100 µM (inactive)
same,GI50,[48],21.3 µM (inactive)
same,GI50,[49],29.9 µM (inactive)
same,GI50,[50],45.1 µM (inactive)
same,GI50,[51],> 100 µM (inactive)
same,GI50,[52],> 100 µM (inactive)
same,GI50,[53],33.7 µM (inactive)
same,GI50,[54],12 µM (inactive)
same,GI50,[55],67.5 µM (inactive)
same,GI50,[56],48.2 µM (inactive)
same,GI50,[57],> 100 µM (inactive)
same,GI50,[58],29.1 µM (inactive)
